Measurements reported in patent US9834526B2 (MERCK SHARP & DOHME CORP., priority 2013, dated 2017).

Biological target: T1, wildtype HIV-1 protease (Human immunodeficiency virus type 1 group M subtype B, UniProt P04585)
T1 construct: preincubated with the HIV-1 protease (wild type) enzyme in assay buffer; made in house; host or cells: Escherichia coli
Assay: Inhibition of microbial expressed HIV protease (Pepcleav)
Type: biochemical
Conditions: wild type HIV-1 protease expressed in E. coli, 20 pM enzyme, 400 micromolar peptide substrate, pH 5.5, LC-MS readout; mean of at least two independent experiments
Method: Assay for Inhibition of Microbial Expressed HIV Protease (“Pepcleav”)
Studies of the inhibition of the wildtype HIV-1 protease (which was expressed in Escherichia coli) were carried out with a peptide substrate [Val-Ser-Gln-Asn-(βnaphthyl)Ala-Pro-Ile-Val (SEQ ID NO:1)]. The inhibitor was first preincubated with the HIV-1 protease (wild type) enzyme in assay buffer (50 mM sodium acetate, pH 5.5, 100 mM NaCl, and 0.1% BSA) for 30 minutes at room temperature. Substrate was added to 400 micromolar in a total volume of 20 microliters containing 20 picomolar HIV-1 protease (final) and the reaction was incubated for 1 hour at 30° C. The reaction was quenched with the addition of formic acid and indinavir to 0.012% and 150 nM final concentrations, respectively. The product formation was determined after separation of product and substrate on a Zorbax Eclipse XDB-C18 column connected to an API 4000 mass spectrometer (Applied Biosystems) with multiple reaction monitoring (transitions were 644.5/428.9 and 615.4/422.2 (M1/M3) for product and indinavir respectively). The extent of inhibition of the reaction was determined from the peak area of the products. Analysis of the products, independently synthesized, provided quantitation standards and confirmation of the product composition.

Structure (SMILES) | IC50
COC(=O)N[C@H](C(=O)Nc1ccccc1CC[C@@H]1CN[C@H](CO)[C@@H](CSc2nnc(-c3ccncc3)o2)O1)C(c1ccccc1)c1ccccc1 [Example 31, N-(2-{2-[(2R,5R,6S)-5-(hydroxymethyl)-6-({[5-(pyridin-4-yl)-1,3,4-oxadiazol-2-yl]sulfanyl}methyl)morpholin-2-yl]ethyl}phenyl)-Nα-(methoxycarbonyl)-β-phenyl-L-phenylalaninamide] | 0.171 nM
COC(=O)N[C@H](C(=O)Nc1ccccc1CC[C@@H]1CN[C@H](c2ncc[nH]2)[C@@H](CSc2nnc(-c3ccncc3)o2)O1)C(c1ccccc1)c1ccccc1 [Example 32, N-(2-{2-[(2R,5R,6S)-5-(1H-imidazol-2-yl)-6-({[5-(pyridin-4-yl)-1,3,4-oxadiazol-2-yl]sulfanyl}methyl)morpholin-2-yl]ethyl}phenyl)-Nα-(methoxycarbonyl)-β-phenyl-L-phenylalaninamide] | 0.65 nM
COC(=O)N[C@H](C(=O)Nc1ccccc1CC[C@@H]1CN[C@H](COCc2ccccc2)[C@@H](CSc2nnc(-c3ccncc3)o2)O1)C(c1ccccc1)c1ccccc1 [Example 33] | 0.472 nM
COC(=O)N[C@H](C(=O)Nc1ccccc1CC[C@@H]1CN[C@H](COC(=O)NCc2ccc(F)cc2)[C@@H](CSc2nnc(-c3ccncc3)o2)O1)C(c1ccccc1)c1ccccc1 [Example 35, N-(2-{2-[(2R,5R,6S)-5-({[(4-fluorobenzyl)carbamoyl]oxy}methyl)-6-({[5-(pyridin-4-yl)-1,3,4-oxadiazol-2-yl]sulfanyl}methyl)morpholin-2-yl]ethyl}phenyl)-Nα-(methoxycarbonyl)-β-phenyl-L-phenylalaninamide] | 0.0304 nM
C[C@@H]1O[C@H](CCc2c(F)cccc2NC(=O)[C@@H](N)C(c2ccc(F)cc2)c2ccc(F)cc2)CN[C@@H]1COC(N)=O [Example 36, N-[2-(2-{(2R,5R,6S)-5-[(carbamoyloxy)methyl]-6-methylmorpholin-2-yl}ethyl)-3-fluorophenyl]-4-fluoro-β-(4-fluorophenyl)-L-phenylalaninamide] | 39 nM
C[C@@H]1O[C@H](CCc2c(F)cccc2NC(=O)[C@@H](N)C(c2ccc(F)cc2)c2ccc(F)cc2)CN[C@@H]1COC(=O)N[C@@H](C)C(F)(F)F [Example 37, 4-fluoro-N-[3-fluoro-2-(2-{(2R,5R,6S)-6-methyl-5-[({[(1S)-2,2,2-trifluoro-1-methylethyl]carbamoyl}oxy)methyl]morpholin-2-yl}ethyl)phenyl]-β-(4-fluorophenyl)-L-phenylalaninamide] | 3.1 nM
CC[C@@H](NC(=O)OC[C@H]1NC[C@@H](CCc2c(F)cccc2NC(=O)[C@@H](N)C(c2ccc(F)cc2)c2ccc(F)cc2)O[C@H]1C)c1ccc(F)cc1 [Example 38, 4-fluoro-N-[3-fluoro-2-(2-{(2R,5R,6S)-5-[({[(1R)-1-(4-fluorophenyl)propyl]carbamoyl}oxy)methyl]-6-methylmorpholin-2-yl}ethyl)phenyl]-β-(4-fluorophenyl)-L-phenylalaninamide] | 4.4 nM
COC(=O)N[C@H](C(=O)Nc1ccccc1CC[C@@H]1CN[C@H](C)[C@@H](CSc2cc(N3CCN(C)CC3)ncn2)O1)C(c1ccccc1)c1ccccc1 [Example 39] | 420 nM
COC(=O)N[C@H](C(=O)Nc1ccccc1CC[C@@H]1CN[C@H](C)[C@@H](CS(=O)(=O)c2ccc(Cl)cc2)O1)C(c1ccccc1)c1ccccc1 [Example 40, N-(2-{2-[(2R,5R,6S)-6-{[(4-chlorophenyl)sulfonyl]methyl}-5-methylmorpholin-2-yl]ethyl}phenyl)-Nα-(methoxycarbonyl)-β-phenyl-L-phenylalaninamide] | 750 nM
COC(=O)N[C@H](C(=O)Nc1ccccc1CC[C@@H]1CN[C@H](C)[C@@H](C[S@@+]([O-])c2ccc(Cl)cc2)O1)C(c1ccccc1)c1ccccc1 [Example 41, N-(2-{2-[(2R,5R,6S)-6-{[(R)-(4-chlorophenyl)sulfinyl]methyl}-5-methylmorpholin-2-yl]ethyl}phenyl)-Nα-(methoxycarbonyl)-β-phenyl-L-phenylalaninamide] | 890 nM
COC(=O)N[C@H](C(=O)Nc1ccccc1CC[C@@H]1CN[C@H](COCc2ccccc2)[C@@H](CO)O1)C(c1ccccc1)c1ccccc1 [Example 42, N-(2-{2-[(2R,5R,6S)-5-[(benzyloxy)methyl]-6-(hydroxymethyl)morpholin-2-yl]ethyl}phenyl)-Nα-(methoxycarbonyl)-β-phenyl-L-phenylalaninamide] | 80 nM
COC(=O)N[C@H](C(=O)Nc1ccccc1CC[C@@H]1CN[C@H](COC(=O)NCC(F)(F)F)[C@@H](CSc2nnc(-c3ccncc3)o2)O1)C(c1ccccc1)c1ccccc1 [Example 43] | 0.01 nM
C[C@H]1O[C@H](CCc2c(F)cncc2NC(=O)[C@@H](N)C(c2ccc(F)cc2)c2ccc(F)cc2)CN[C@@H]1COC(=O)NCC(F)(F)F [Example 45, 4-fluoro-N-(5-fluoro-4-{2-[(2R,5R,6R)-6-methyl-5-({[(2,2,2-trifluoroethyl)carbamoyl]oxy}methyl)morpholin-2-yl]ethyl}pyridin-3-yl)-β-(4-fluorophenyl)-L-phenylalaninamide] | 24 nM
COC(=O)N[C@H](C(=O)Nc1ccccc1CC[C@@H]1CN[C@H](COC(=O)NCC(F)(F)F)[C@@H](CO)O1)C(c1ccccc1)c1ccccc1 [Example 46, N-(2-{2-[(2R,5R,6S)-6-(hydroxymethyl)-5-({[(2,2,2-trifluoroethyl)carbamoyl]oxy}methyl)morpholin-2-yl]ethyl}phenyl)-Nα-(methoxycarbonyl)-β-phenyl-L-phenylalaninamide] | 65 nM
C[C@H]1O[C@H](CCc2c(F)cccc2NC(=O)[C@@H](N)C(c2ccc(F)cc2)c2ccc(F)cc2)CN[C@@H]1COC(=O)NCc1ccc(F)cc1 [Example 48, 4-fluoro-N-(3-fluoro-2-{2-[(2R,5R,6R)-5-({[(4-fluorobenzyl)carbamoyl]oxy}methyl)-6-methylmorpholin-2-yl]ethyl}phenyl)-β-(4-fluorophenyl)-L-phenylalaninamide] | 5.8 nM
C[C@@H]1O[C@H](CCc2c(F)cccc2NC(=O)[C@@H](N)C(c2ccc(F)cc2)c2ccc(F)cc2)CN[C@@H]1CO [Example 49, 4-fluoro-N-(3-fluoro-2-{2-[(2R,5R,6S)-5-(hydroxymethyl)-6-methylmorpholin-2-yl]ethyl}phenyl)-β-(4-fluorophenyl)-L-phenylalaninamide] | 400 nM
C[C@@H]1O[C@H](CCc2c(F)cccc2NC(=O)[C@@H](N)C(c2ccc(F)cc2)c2ccc(F)cc2)CN[C@@H]1COC(=O)NCC(F)(F)F [Example 50, 4-fluoro-N-(3-fluoro-2-{2-[(2R,5R,6S)-6-methyl-5-({[(2,2,2-trifluoroethyl)carbamoyl]oxy}methyl)morpholin-2-yl]ethyl}phenyl)-β-(4-fluorophenyl)-L-phenylalaninamide] | 30 nM
C[C@H]1O[C@H](COc2c(F)cncc2NC(=O)[C@@H](N)C(c2ccc(F)cc2)c2ccc(F)cc2)CN[C@@H]1COC(=O)NCC(F)(F)F [Example 51, 4-fluoro-N-(5-fluoro-4-{[(2S,5R,6R)-6-methyl-5-({[(2,2,2-trifluoroethyl)carbamoyl]oxy}methyl)morpholin-2-yl]methoxy}pyridin-3-yl)-β-(4-fluorophenyl)-L-phenylalaninamide] | 77 nM
